From the CheMixHub viscosity set
Where “and” joins values, the source holds several entries; their conditions need not be identical. Identical values can stand only once. ± gives the uncertainty stated by the source.

Test: xn = mol fraction of the nth substance listed

C1CCOC1 + CC(C)O
101 kPa
Conditions	viscosity
298.15 K, x1 = 0.05	1.706 ± 0.018 mPa·s
298.15 K, x1 = 0.1	1.445 ± 0.017 mPa·s
298.15 K, x1 = 0.15	1.248 ± 0.016 mPa·s
298.15 K, x1 = 0.2001	1.113 ± 0.015 mPa·s
298.15 K, x1 = 0.25	0.988 ± 0.014 mPa·s
298.15 K, x1 = 0.3	0.896 ± 0.014 mPa·s
298.15 K, x1 = 0.35	0.812 ± 0.014 mPa·s
298.15 K, x1 = 0.4	0.752 ± 0.013 mPa·s
298.15 K, x1 = 0.45	0.703 ± 0.013 mPa·s
298.15 K, x1 = 0.5	0.659 ± 0.013 mPa·s and 0.6917 ± 0.018 mPa·s
298.15 K, x1 = 0.55	0.623 ± 0.013 mPa·s
298.15 K, x1 = 0.6	0.594 ± 0.013 mPa·s
298.15 K, x1 = 0.65	0.567 ± 0.013 mPa·s
298.15 K, x1 = 0.7	0.545 ± 0.013 mPa·s
298.15 K, x1 = 0.75	0.526 ± 0.013 mPa·s
298.15 K, x1 = 0.8	0.511 ± 0.013 mPa·s
298.15 K, x1 = 0.85	0.497 ± 0.013 mPa·s
298.15 K, x1 = 0.9	0.488 ± 0.013 mPa·s
298.15 K, x1 = 0.95	0.48 ± 0.013 mPa·s
298.15 K, x2 = 0.1211	0.49 ± 0.014 mPa·s
298.15 K, x2 = 0.2273	0.525 ± 0.014 mPa·s
298.15 K, x2 = 0.3055	0.556 ± 0.015 mPa·s
298.15 K, x2 = 0.3798	0.587 ± 0.016 mPa·s
298.15 K, x2 = 0.4846	0.654 ± 0.018 mPa·s
298.15 K, x2 = 0.5812	0.745 ± 0.02 mPa·s
298.15 K, x2 = 0.6948	0.899 ± 0.024 mPa·s
298.15 K, x2 = 0.7237	0.963 ± 0.025 mPa·s
298.15 K, x2 = 0.8181	1.256 ± 0.033 mPa·s
298.15 K, x2 = 0.9031	1.571 ± 0.041 mPa·s
298.15 K, x2 = 0.955	1.803 ± 0.047 mPa·s
303 K, x1 = 0.0983	1.07 ± 0.11 mPa·s
303 K, x1 = 0.2085	0.86 ± 0.09 mPa·s
303 K, x1 = 0.2911	0.71 ± 0.07 mPa·s
303 K, x1 = 0.3728	0.58 ± 0.06 mPa·s
303 K, x1 = 0.5014	0.56 ± 0.06 mPa·s
303 K, x1 = 0.5976	0.54 ± 0.06 mPa·s
303 K, x1 = 0.7483	0.48 ± 0.05 mPa·s
303 K, x1 = 0.8001	0.47 ± 0.05 mPa·s
303 K, x1 = 0.8939	0.45 ± 0.05 mPa·s
308.15 K, x1 = 0.05	1.313 ± 0.016 mPa·s
308.15 K, x1 = 0.1	1.142 ± 0.015 mPa·s
308.15 K, x1 = 0.15	1.009 ± 0.014 mPa·s
308.15 K, x1 = 0.2001	0.909 ± 0.014 mPa·s
308.15 K, x1 = 0.25	0.824 ± 0.014 mPa·s
308.15 K, x1 = 0.3	0.755 ± 0.013 mPa·s
308.15 K, x1 = 0.35	0.697 ± 0.013 mPa·s
308.15 K, x1 = 0.4	0.646 ± 0.013 mPa·s
308.15 K, x1 = 0.45	0.606 ± 0.013 mPa·s
308.15 K, x1 = 0.5	0.576 ± 0.013 mPa·s
308.15 K, x1 = 0.55	0.549 ± 0.013 mPa·s
308.15 K, x1 = 0.6	0.526 ± 0.013 mPa·s
308.15 K, x1 = 0.65	0.507 ± 0.013 mPa·s
308.15 K, x1 = 0.7	0.489 ± 0.013 mPa·s
308.15 K, x1 = 0.75	0.474 ± 0.013 mPa·s
308.15 K, x1 = 0.8	0.461 ± 0.013 mPa·s
308.15 K, x1 = 0.85	0.452 ± 0.013 mPa·s
308.15 K, x1 = 0.9	0.444 ± 0.012 mPa·s
308.15 K, x1 = 0.95	0.44 ± 0.012 mPa·s
313 K, x1 = 0.0983	0.86 ± 0.09 mPa·s
313 K, x1 = 0.2085	0.7 ± 0.07 mPa·s
313 K, x1 = 0.2911	0.61 ± 0.07 mPa·s
313 K, x1 = 0.3728	0.54 ± 0.06 mPa·s
313 K, x1 = 0.5014	0.48 ± 0.05 mPa·s
313 K, x1 = 0.5976	0.46 ± 0.05 mPa·s
313 K, x1 = 0.7483	0.45 ± 0.05 mPa·s
313 K, x1 = 0.8001	0.43 ± 0.05 mPa·s
313 K, x1 = 0.8939	0.43 ± 0.05 mPa·s

CC(=O)Oc1ccccc1C(=O)O + CC(C)O
viscosity [mPa·s], 101 kPa
Conditions	x1 = 0.00057	x1 = 0.000763	x1 = 0.000955	x1 = 0.00115	x1 = 0.00134	x1 = 0.00153	x1 = 0.00191
293.15 K	2.382 ± 0.054	2.382 ± 0.054	2.383 ± 0.054	2.384 ± 0.054	2.385 ± 0.054	2.386 ± 0.054	2.389 ± 0.054
298.15 K	2.045 ± 0.047	2.045 ± 0.047	2.046 ± 0.047	2.046 ± 0.047	2.047 ± 0.047	2.048 ± 0.047	2.049 ± 0.047
303.15 K	1.763 ± 0.041	1.764 ± 0.041	1.764 ± 0.041	1.765 ± 0.041	1.766 ± 0.041	1.767 ± 0.041	1.768 ± 0.041
308.15 K	1.524 ± 0.036	1.524 ± 0.036	1.525 ± 0.036	1.525 ± 0.036	1.525 ± 0.036	1.526 ± 0.036	1.526 ± 0.036
310.15 K	1.437 ± 0.034	1.438 ± 0.034	1.438 ± 0.034	1.438 ± 0.034	1.439 ± 0.034	1.439 ± 0.034	1.44 ± 0.034
313.15 K	1.392 ± 0.033	1.392 ± 0.033	1.393 ± 0.033	1.393 ± 0.033	1.394 ± 0.033	1.394 ± 0.033	1.395 ± 0.033

CC(C)=O + CC(C)O
298.15 K, 101 kPa
Conditions	viscosity [mPa·s]
x2 = 0.152	0.347 ± 0.004
x2 = 0.161	0.349 ± 0.004
x2 = 0.292	0.389 ± 0.004
x2 = 0.302	0.395 ± 0.004
x2 = 0.452	0.486 ± 0.005
x2 = 0.486	0.507 ± 0.005
x2 = 0.488	0.513 ± 0.005
x2 = 0.661	0.703 ± 0.006
x2 = 0.812	1.071 ± 0.009
x2 = 0.849	1.187 ± 0.009

CC1COC(=O)O1 (stereo unspecified) + CC(C)O
viscosity [mPa·s], 101 kPa
Conditions	x1 = 0.0614	x1 = 0.1283	x1 = 0.2015	x1 = 0.2818	x1 = 0.3706	x1 = 0.469	x1 = 0.5787	x1 = 0.7019	x1 = 0.8412
298.15 K	1.84 ± 0.02	1.74 ± 0.02	1.68 ± 0.02	1.64 ± 0.02	1.64 ± 0.02	1.65 ± 0.02	1.7 ± 0.02	1.8 ± 0.02	2.04 ± 0.02
303.15 K	1.6 ± 0.02	1.53 ± 0.01	1.46 ± 0.01	1.44 ± 0.01	1.45 ± 0.01	1.48 ± 0.01	1.54 ± 0.02	1.65 ± 0.02	1.85 ± 0.02
308.15 K	1.44 ± 0.01	1.37 ± 0.01	1.31 ± 0.01	1.29 ± 0.01	1.29 ± 0.01	1.32 ± 0.01	1.39 ± 0.01	1.49 ± 0.01	1.68 ± 0.02

CCCc1ccccc1 + CC(CC(C)(C)C)CC(C)(C)C
viscosity [mPa·s], 102 kPa
Conditions	x1 = 0.101	x1 = 0.2003	x1 = 0.3007	x1 = 0.4005	x1 = 0.498	x1 = 0.6	x1 = 0.7	x1 = 0.8001	x1 = 0.9002
293.15 K	1.24 ± 0.02	1.16 ± 0.02	1.09 ± 0.02	1.03 ± 0.02	0.983 ± 0.021	0.939 ± 0.021	0.905 ± 0.021	0.877 ± 0.021	0.861 ± 0.021
303.15 K	1.04 ± 0.02	0.986 ± 0.021	0.929 ± 0.021	0.883 ± 0.021	0.847 ± 0.021	0.815 ± 0.021	0.787 ± 0.021	0.762 ± 0.021	0.748 ± 0.021
313.15 K	0.901 ± 0.021	0.852 ± 0.021	0.809 ± 0.021	0.773 ± 0.021	0.744 ± 0.021	0.712 ± 0.021	0.689 ± 0.021	0.666 ± 0.021	0.654 ± 0.021
323.15 K	0.785 ± 0.021	0.75 ± 0.021	0.713 ± 0.021	0.685 ± 0.021	0.656 ± 0.021	0.629 ± 0.021	0.609 ± 0.021	0.589 ± 0.021	0.578 ± 0.021

CC[N+](CC)(CC)CC.Cc1ccc(S(=O)(=O)[O-])cc1 + CC(O)CO
101 kPa, x1 = 0.2
Conditions	viscosity [mPa·s]
298.15 K	66.9 ± 0.9
303.15 K	51.2 ± 0.5
308.15 K	39.8 ± 0.5
313.15 K	31.6 ± 0.4
318.15 K	25.5 ± 0.3
323.15 K	20.9 ± 0.3

CCCc1ccccc1 + CCC(=O)O
308.15 K, 101.33 kPa
Conditions	viscosity [mPa·s]
x2 = 0.0799	0.7011 ± 0.0091
x2 = 0.1548	0.7021 ± 0.0089
x2 = 0.2233	0.7031 ± 0.0087
x2 = 0.275	0.7037 ± 0.0086
x2 = 0.411	0.7084 ± 0.0083
x2 = 0.519	0.7218 ± 0.0082
x2 = 0.6192	0.7357 ± 0.0081
x2 = 0.7099	0.753 ± 0.0081
x2 = 0.7906	0.7717 ± 0.0081
x2 = 0.8664	0.8012 ± 0.0082
x2 = 0.9357	0.8334 ± 0.0084

CC(=O)Oc1ccccc1C(=O)O + CCC(C)O
viscosity [mPa·s], 101 kPa
Conditions	x1 = 0.0007	x1 = 0.00094	x1 = 0.00118	x1 = 0.00141	x1 = 0.00165	x1 = 0.00189	x1 = 0.00236
293.15 K	3.623 ± 0.082	3.624 ± 0.082	3.626 ± 0.082	3.627 ± 0.082	3.628 ± 0.082	3.63 ± 0.082	3.632 ± 0.082
298.15 K	3.014 ± 0.069	3.015 ± 0.069	3.015 ± 0.069	3.016 ± 0.069	3.017 ± 0.069	3.018 ± 0.069	3.02 ± 0.069
303.15 K	2.525 ± 0.058	2.526 ± 0.058	2.527 ± 0.058	2.527 ± 0.058	2.528 ± 0.058	2.529 ± 0.059	2.531 ± 0.059
308.15 K	2.12 ± 0.05	2.121 ± 0.05	2.122 ± 0.05	2.123 ± 0.05	2.123 ± 0.05	2.124 ± 0.05	2.125 ± 0.05
310.15 K	1.974 ± 0.046	1.975 ± 0.046	1.976 ± 0.046	1.976 ± 0.047	1.977 ± 0.047	1.978 ± 0.047	1.979 ± 0.047
313.15 K	1.792 ± 0.043	1.793 ± 0.043	1.794 ± 0.043	1.795 ± 0.043	1.796 ± 0.043	1.797 ± 0.043	1.798 ± 0.043
